Laboratory results as given in PubChem BioAssay (NCI).
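A five-concentration, 48-hour dose response in 96-well plates underlies each endpoint, interpolated linearly between surrounding concentrations. The concentration for 50% growth inhibition is given as GI50. Definition used: TGI = concentration required for complete inhibition of growth.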

Legend:
Assay in all cases: NCI-60 cell line screen, 48 h
786-0 renal = system: 786-0 renal
A549 NSCLC = system: A549 NSCLC
HCC-2998 colon = system: HCC-2998 colon
MDA-MB-231 breast = system: MDA-MB-231 breast
NCI-H23 lung = system: NCI-H23 lung
NCI-H522 lung = system: NCI-H522 lung
OVCAR-3 ovarian = system: OVCAR-3 ovarian
RXF 393 renal = system: RXF 393 renal
SF-295 CNS = system: SF-295 CNS
SK-MEL-2 melanoma = system: SK-MEL-2 melanoma

Row | Compound | GI50 (786-0 renal) | TGI (786-0 renal) | GI50 (A549 NSCLC) | TGI (A549 NSCLC) | GI50 (HCC-2998 colon) | TGI (HCC-2998 colon) | GI50 (MDA-MB-231 breast) | TGI (MDA-MB-231 breast) | GI50 (NCI-H23 lung) | TGI (NCI-H23 lung) | GI50 (NCI-H522 lung) | TGI (NCI-H522 lung) | GI50 (OVCAR-3 ovarian) | TGI (OVCAR-3 ovarian) | GI50 (RXF 393 renal) | TGI (RXF 393 renal) | GI50 (SF-295 CNS) | TGI (SF-295 CNS) | GI50 (SK-MEL-2 melanoma) | TGI (SK-MEL-2 melanoma)
1 | CCN(CC)CCC(=O)Nc1ccc(Cn2nnc3c2C(=O)c2nnn(Cc4ccc(NC(=O)CCN(CC)CC)cc4)c2C3=O)cc1 | 8.97 µM | > 72.3 µM | 1.51 µM | 3.4 µM | 0.316 µM | 0.987 µM | 0.253 µM | 10.2 µM | 0.326 µM | 1.22 µM | 0.18 µM | 0.423 µM | 0.265 µM | 0.778 µM | 3.6 µM | 15.2 µM | 1.93 µM | 5.33 µM | 0.22 µM | 0.571 µM
2 | O=c1oc(-c2ccc(O)c(O)c2)cc2cc(O)cc(O)c12 | 39.6 µM | > 100 µM | 34.1 µM | > 100 µM | 36.6 µM | 57.7 µM | 44.7 µM | > 100 µM | 35.2 µM | > 100 µM | 27.3 µM | > 100 µM | 35.3 µM | > 100 µM | 35.9 µM | > 100 µM | 43.7 µM | > 100 µM | 74.4 µM | > 100 µM
3 | Cc1ccc(C2=Nc3c(N)ncnc3NC(c3cccc(Nc4ccnc5cc(C(F)(F)F)ccc45)c3)C2)cc1 (stereo not given) | 3.03 µM | 11.2 µM | 3.63 µM | 13.2 µM | 2.59 µM | 10.5 µM | 2.59 µM | 8.44 µM | 3.6 µM | 16.7 µM | 2.27 µM | 7.51 µM | 3.47 µM | 15.1 µM | 1.69 µM | 3.55 µM | 2.33 µM | 6.88 µM | 2.15 µM | 5.15 µM
4 | COc1cc2oc3ccccc3c(=O)c2cc1CSc1ccccc1N | – | > 100 µM | – | > 100 µM | – | 29.3 µM | – | > 100 µM | – | > 100 µM | – | 41.1 µM | – | > 68.1 µM | – | > 45.5 µM | – | > 100 µM | – | > 77.6 µM
5 | N#CC1c2ccccc2-c2ccccc2N1C(=O)c1ccccc1 (stereo not given) | 3.53 µM | > 88.1 µM | 2.97 µM | > 38.8 µM | 2.72 µM | 22.2 µM | 2.61 µM | 9.06 µM | 3.09 µM | > 100 µM | 0.223 µM | 1.48 µM | 0.748 µM | 2.47 µM | 0.913 µM | 13.2 µM | 2.63 µM | > 100 µM | 2.78 µM | > 29.6 µM
